{"source": "patent US20040043432A1", "about": "“Compounds targeted to cellular locations” (priority 2000, published 2004)", "molecules": {"B1": {"name": "APT530: short consensus repeats 1,2,3 and 4 of human CD55 (DAF) with a carboxyl terminal cysteine, expressed in E. coli (SEQ ID No: 10) (protein)", "chain": "MQDCGLPPDVPNAQPALEGRTSFPEDTVITYKCEESFVKIPGEKDSVICLKGSQWSDIEEFCNRSCEVPTRLNSASLKQPYITQNYFPVGTVVEYECRPGYRREPSLSPKLTCLQNLKWSTAVEFCKKKSCPNPGEIRNGQIDVPGGILFGATISFSCNTGYKLFGSTSSFCLISGSSVQWSDPLPECREIYCPAPPQIDNGIIQGERDHYGYRQSVTYACNKGFTMIGEHSIYCTVNNDEGEWSGPPPECRGC"}, "B2": {"name": "APT632: soluble CD59 from human urine (u-hCD59, Seq. ID No. 1) thiolated with 2-iminothiolane and linked to APT542 (conjugate, listed as Homo sapiens)", "chain": "LQCYNCPNPTADCKTAVNCSSDFDACLITKAGLQVYNKCWKFEHCNFNDVTTRLRENELTYYCCKKDLCNFNEQLEN", "modifications": "thiolated with 2-iminothiolane, linked to APT542"}, "B3": {"name": "APT2334: APT530 linked to a single molecule of APT542 (MSWP-1) (SEQ ID No: 11) (conjugate)", "chain": "MQDCGLPPDVPNAQPALEGRTSFPEDTVITYKCEESFVKIPGEKDSVICLKGSQWSDIEEFCNRSCEVPTRLNSASLKQPYITQNYFPVGTVVEYECRPGYRREPSLSPKLTCLQNLKWSTAVEFCKKKSCPNPGEIRNGQIDVPGGILFGATISFSCNTGYKLFGSTSSFCLISGSSVQWSDPLPECREIYCPAPPQIDNGIIQGERDHYGYRQSVTYACNKGFTMIGEHSIYCTVNNDEGEWSGPPPECRGCCDGPKKKKKKSPSKSSG", "modifications": "APT530 linked to APT542 (MSWP-1)"}}, "key": {"[1]": {"system": "lipid rafts on Raji cells", "assay": "fluorescence microscopy colocalisation with lipid raft markers", "format": "cell-based", "details": "60 min at 37C, APT2104 with endogenous CD59, APT2105 and APT070 with FITC-CTB"}, "[2]": {"system": "Raji cells", "assay": "confocal microscopy of intracellular localization", "format": "cell-based", "details": "confocal microscope, added singly or with raft markers", "procedure": "For confocal microscopy, cells were treated with a variety of compounds and antibodies as described above. The cells were fixed and mounted as described and visualised using an Axiophot microscope (Carl Zeiss) coupled to a Colour Coolview CCD colour camera. Filter settings for the simultaneous detection of red and green fluorescence were used. The digital images were processed using Photoshop software (Adobe Systems). Cell images were obtained that visualised either the surface of the cell or cell sections.\nThis example follows the same procedure as described in example 13 with the following modifications. In certain experiments, lipid raft targeted compounds were added to the cells either singly, or in combination with other compounds. The compounds were then visualized with fluorescent antibodies or in the case of APT2104 and APT2105 by their intrinsic fluorescence, in each case using a confocal microscope as described in methods."}, "[3]": {"system": "classical pathway-mediated haemolysis of sheep erythrocytes", "details": "described in WO 98/02454; cited from earlier work"}, "[4]": {"system": "complement-mediated lysis by human serum", "assay": "haemolytic assay (1:400 dilution of human serum)", "format": "cell-based", "details": "read-out: concentration required to bring about 50% inhibition of lysis (IH50)", "excerpt": "APT530 is a protein that comprises the short consensus repeats 1,2,3 and 4 of human CD55 (decay accelerating factor, DAF), with a carboxyl terminal cysteine residue expressed in a recombinant form in E. coli cells. cDNA that encoded human DAF mRNA was generated from total brain RNA as described in Example 9. A plasmid to encode APT530 was generated by PCR using the pUC-DAF plasmid as template. Primers were designed to amplify the region of the DAF gene encoding amino acids 35-285 (SCR1-4). The 5′ primer incorporated an NdeI restriction enzyme site, and a codon specifying glutamine, thereby introducing an amino terminal methionine-glutamine amino acid pair. The 3′ primer added a carboxyl terminal cysteine residue and incorporated an EcoRI restriction enzyme site. The PCR product was cloned into the pUC57/T T-vector as described, sequenced, the insert excised with NdeI and EcoRI, and ligated into pET266 (Novagen, Madison, USA). The product of this ligation is the plasmid pET99-01, which expresses DAF (SCR1-4). pET99-01 DNA was introduced into E. coli HAMS113 (see methods) and expression of the recombinant protein induced as described in Example 1. The expression of APT530 was analysed by SDS-PAGE (described in methods). […] Refolded […] was analysed by SDSPAGE, Western blot and the effectiveness of the protein in a haemolytic assay (described in methods). […]"}, "[5]": {"system": "complement-mediated lysis of guinea pig erythrocytes by human serum", "assay": "C5b6-initiated reactive lysis of erythrocytes", "format": "cell-based", "details": "reactive lysis assay", "procedure": "C56 euglobulin was an essential reagent that was used for the C5b6-initiated reactive lysis of erythrocytes. C56 euglobulin was generated in and purified from some acute-phase sera from post-trauma individuals (such as sports injuries, surgery or childbirth). Blood was drawn from donors in the acute phase of inflammation and allowed to clot at room temperature. To each 10 mls of serum, 0.5 mls of yeast suspension was added and the mixture incubated overnight on a rotator at room temperature. The serum was centrifuged to remove the yeast and dialysed against 0.02M Na/K phosphate, pH 5.4. The precipitate (containing the C56 euglobulin) was collected by centrifugation and redisolved in 0.01M Na/K phosphate/0.05M NaCl, pH7.0 containing 25% v/v glycerol.\nGuinea pig erythrocytes (TCS Microbiological, UK) were washed twice in PBS and resuspended to 5% by volume in PBS/0.05% CHAPS. 50 microL of these cells were placed in the wells of a round-bottomed microtitre plate. Samples to be tested were diluted in PBS/0.05% CHAPS and 50 microL of these test solutions then added to the wells containing the guinea pig erythrocytes. The plate was then incubated at 37 degrees Celsius for 20 minutes to allow binding of the samples to the erythrocytes. […] 100 microL of the supernatant was transferred to a clear flat bottomed microtitre plate and the absorbance at 410 nm measured spectroscopically. […]"}}, "note": "“Also recorded” adds a separate entry of the source.", "data": [{"molecule": "APT070: residues 1-196 of CR1 ([SCR1-3]-Cys) derivatised with myristoyl cationic peptide MSWP-1; WO 98/02454 example 8 [reference compound]", "values": [{"measurement": "co-localisation with lipid raft markers (FITC-CTB / endogenous CD59)", "setting": "[1]", "value": "co-localise; also recorded: discrete punctate pattern"}, {"measurement": "intracellular localization (intracellular fluorescence)", "setting": "[2]", "value": "intracellular fluorescence was seen"}, {"measurement": "anti-complement activity, potency relative to [SCR1-3]-Cys", "setting": "[3]", "value": "100-1000 fold"}]}, {"molecule": "N-Myristoyl Gly-Ser-Ser-Lys-Ser-Pro-Ser-Lys-Lys-Lys-Lys-Lys-Lys-Pro-Gly-Glu-Cys(S-succinimido Alexafluor™546 C5)-NH2 [APT2105]", "values": [{"measurement": "co-localisation with lipid raft markers (FITC-CTB / endogenous CD59)", "setting": "[1]", "value": "co-localise; also recorded: discrete punctate pattern"}, {"measurement": "intracellular localization (intracellular fluorescence)", "setting": "[2]", "value": "intracellular fluorescence was seen"}]}, {"molecule": "N-Myristoyl-Gly-Ser-Ser-Lys-Ser-Pro-Ser-Lys-Lys-Lys-Lys-Lys-Lys-Pro-Gly-Glu-Cys(S-succinimido Alexafluor™488 C5)-NH2 [APT2104]", "values": [{"measurement": "co-localisation with lipid raft markers (FITC-CTB / endogenous CD59)", "setting": "[1]", "value": "co-localise; also recorded: discrete punctate pattern"}, {"measurement": "intracellular localization (intracellular fluorescence)", "setting": "[2]", "value": "intracellular fluorescence was seen"}]}, {"molecule": "B1", "values": [{"measurement": "IC50", "setting": "[4]", "value": "~40", "unit": "nM"}]}, {"molecule": "B2", "values": [{"measurement": "concentration at which guinea pig erythrocytes are protected from complement-mediated lysis by human serum", "setting": "[5]", "value": "greater than 0.5 nM"}]}, {"molecule": "B3", "values": [{"measurement": "IC50", "setting": "[4]", "value": 0.2, "unit": "nM"}]}]}
